Target: T1, RET G691S (Homo sapiens, UniProt P07949, G691S)
T1 construct: purchased Thermo Fisher Scientific (Life Technologies) SelectScreen
Assay: SelectScreen LanthaScreen
Assay type: binding
Details: read-out: % displacement
Outline: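 SelectScreen broad panel; activity (Z'LYTE, Adapta) plus binding formats. ATP: Km app for CSF1R Z'LYTE; 10 for CAMK1 Adapta. Readout = % per kinase.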

T1 sequence (P07949 29-1114 G691S): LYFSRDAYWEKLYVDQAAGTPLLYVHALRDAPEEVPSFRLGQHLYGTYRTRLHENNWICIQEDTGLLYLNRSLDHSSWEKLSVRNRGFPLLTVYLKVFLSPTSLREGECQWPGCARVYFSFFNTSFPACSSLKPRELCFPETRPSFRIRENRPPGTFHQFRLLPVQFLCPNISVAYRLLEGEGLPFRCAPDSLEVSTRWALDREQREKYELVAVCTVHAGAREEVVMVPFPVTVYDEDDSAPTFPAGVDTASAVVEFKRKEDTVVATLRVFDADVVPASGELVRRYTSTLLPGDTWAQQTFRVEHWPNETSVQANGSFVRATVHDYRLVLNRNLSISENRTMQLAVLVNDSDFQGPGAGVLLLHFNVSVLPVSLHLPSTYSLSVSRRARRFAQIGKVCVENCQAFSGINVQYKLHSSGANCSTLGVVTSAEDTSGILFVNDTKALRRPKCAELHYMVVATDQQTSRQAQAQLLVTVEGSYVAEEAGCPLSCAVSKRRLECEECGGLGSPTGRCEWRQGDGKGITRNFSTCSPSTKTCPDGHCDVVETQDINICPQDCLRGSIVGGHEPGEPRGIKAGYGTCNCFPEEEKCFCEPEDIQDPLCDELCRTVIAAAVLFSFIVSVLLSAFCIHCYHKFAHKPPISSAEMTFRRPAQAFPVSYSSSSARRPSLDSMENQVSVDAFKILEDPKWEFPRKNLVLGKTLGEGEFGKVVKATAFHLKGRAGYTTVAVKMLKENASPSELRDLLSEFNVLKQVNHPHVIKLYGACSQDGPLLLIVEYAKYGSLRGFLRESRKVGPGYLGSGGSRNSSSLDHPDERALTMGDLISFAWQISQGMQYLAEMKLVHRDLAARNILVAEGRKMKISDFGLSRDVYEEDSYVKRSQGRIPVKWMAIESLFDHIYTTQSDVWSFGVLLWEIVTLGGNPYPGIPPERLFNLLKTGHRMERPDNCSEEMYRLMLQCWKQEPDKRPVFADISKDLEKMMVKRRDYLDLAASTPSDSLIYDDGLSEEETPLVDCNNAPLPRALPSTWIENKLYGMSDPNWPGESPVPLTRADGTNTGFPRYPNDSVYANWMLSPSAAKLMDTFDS

CN(C(=O)CN1CCOCC1)c1ccc2sc3c(-c4cccc5c(=O)cc(N6CC7CCC(C6)O7)oc45)cccc3c2c1 [NU5455]
inhibition at 1 µM: -1.8%

From PMC6934184, “Selective DNA-PKcs inhibition extends the therapeutic index of localized radiotherapy and chemotherapy” (The Journal of Clinical Investigation, 2019)
